Here are results for four compounds from US10231452B2, “Thiopicolinamide compounds with fungicidal activity” (Dow AgroSciences LLC, priority 2016, dated 2019).

Where two headings read alike, the source gives them in different places. A value given as a limit tells only on which side of the number the result lay.

Usually melting point stands for the temperature of the solid-liquid transition.

In data set [1] the test system is Puccinia triticina. The data set can be described thus: Fungicidal activity: wheat brown rust (PUCCRT), disease control on wheat seedlings. In kind it is in vivo. The conditions noted are these: wheat (Yuma); for pest or weed control at 100 ppm: high volume application; for pest or weed control at 121.5 g/ha: low volume application, 121.5 g/H. The procedure:
Technical grades of materials were dissolved in acetone, which were then mixed with nine volumes of water (H2O) containing 110 ppm Triton X-100. The fungicide solutions were applied onto wheat seedlings using an automated booth sprayer to run-off. All sprayed plants were allowed to air dry prior to further handling. All fungicides were evaluated using the aforementioned method for their activity vs. all target diseases, unless stated otherwise. Wheat leaf blotch and brown rust activity were also evaluated using track spray applications, in which case the fungicides were formulated as EC formulations, containing 0.1% Trycol 5941 in the spray solutions.
Evaluation of Fungicidal Activity: Wheat Brown Rust (Puccinia Triticina; Synonym: Puccinia recondita f. Sp. Tritici; Bayer Code PUCCRT)
Wheat plants (variety Yuma) were grown from seed in a greenhouse in 50% mineral soil/50% soil-less Metro mix until the first leaf was fully emerged, with 7-10 seedlings per pot. These plants were inoculated with an aqueous spore suspension of Puccinia triticina either prior to or after fungicide treatments. After inoculation the plants were kept in a dark dew room at 22° C. with 100% relative humidity overnight to permit spores to germinate and infect the leaf. The plants were then transferred to a greenhouse set at 24° C. for disease to develop. Fungicide formulation, application and disease assessment followed the procedures as described in the Example A. The results of the evaluation are shown below in Table 4.

The subject of data set [2] is Zymoseptoria tritici. The data set can be described thus: Fungicidal activity: leaf blotch of wheat (SEPTTR), disease control on wheat seedlings. The conditions noted are these: wheat (Yuma); for pest or weed control at 100 ppm: high volume application; for pest or weed control at 121.5 g/ha: low volume application, 121.5 g/H. It counts as in vivo. The protocol: Evaluation of Fungicidal Activity: Leaf Blotch of Wheat (Zymoseptoria Tritici; Bayer Code […]) Technical grades of materials were dissolved in acetone, which were then mixed with nine volumes of water (H2O) containing 110 ppm Triton X-100. The fungicide solutions were applied onto wheat seedlings using an automated booth sprayer to run-off. All sprayed plants were allowed to air dry prior to further handling. All fungicides were evaluated using the aforementioned method for their activity vs. all target diseases, unless stated otherwise. Wheat leaf blotch and brown rust activity were also evaluated using track spray applications, in which case the fungicides were formulated as EC formulations, containing 0.1% Trycol 5941 in the spray solutions. Wheat plants (variety Yuma) were grown from seed in a greenhouse in 50% mineral soil/50% soil-less Metro mix until the first leaf was fully emerged, with 7-10 seedlings per pot. These plants were inoculated with an aqueous spore suspension of Zymoseptoria tritici either prior to or after fungicide treatments. After inoculation the plants were kept in 100% relative humidity (one day in a dark dew chamber followed by two to three days in a lighted dew chamber at 20° C.) to permit spores to germinate and infect the leaf. The plants were then transferred to a greenhouse set at 20° C. for disease to develop. When disease symptoms were fully expressed on the 1st leaves of untreated plants, infection levels were assessed on a scale of 0 to 100 percent disease severity. Percent disease control was calculated using the ratio of disease severity on treated plants relative to untreated plants.

Data set [3] relates to Phakopsora pachyrhizi. The data set can be described thus: Fungicidal activity: Asian soybean rust (PHAKPA), disease control on soybean seedlings. It counts as in vivo. The conditions noted are these: soybean (Williams 82). The protocol: Evaluation of Fungicidal Activity: Asian Soybean Rust (Phakopsora pachyrhizi; Bayer Code PHAKPA)
Technical grades of materials were dissolved in acetone, which were then mixed with nine volumes of H2O containing 0.011% Tween 20. The fungicide solutions were applied onto soybean seedlings using an automated booth sprayer to run-off. All sprayed plants were allowed to air dry prior to further handling.
Soybean plants (variety Williams 82) were grown in soil-less Metro mix, with one plant per pot. Two weeks old seedlings were used for testing. Plants were inoculated either 3 days prior to or 1 day after fungicide treatments. Plants were incubated for 24 h in a dark dew room at 22° C. and 100% relative humidity then transferred to a growth room at 23° C. for disease to develop. Disease severity was assessed on the sprayed leaves.

Where [4] appears, read: 24 h, 1 day protectant, read-out: PUCCRT 1DP disease control, HV activity at 100 ppm.
Where [5] appears, read: 72 h, 3 day curative, read-out: PUCCRT 3DC disease control, HV activity at 100 ppm.
[6] abbreviates: 24 h, 1 day protectant, read-out: SEPTTR 1DP disease control, HV activity at 100 ppm.
Setting [7] is: 72 h, 3 day curative, read-out: SEPTTR 3DC disease control, HV activity at 100 ppm.
The mark [8] stands for this setting: 24 h, 1 day protectant, read-out: PUCCRT 1DP disease control, LV activity at 121.5 g/H.
The mark [9] stands for this setting: 72 h, 3 day curative, read-out: PUCCRT 3DC disease control, LV activity at 121.5 g/H.
Where [10] appears, read: 24 h, 1 day protectant, read-out: SEPTTR 1DP disease control, LV activity at 121.5 g/H.
Setting [11] is: 72 h, 3 day curative, read-out: SEPTTR 3DC disease control, LV activity at 121.5 g/H.

With `COc1cc(C)ccc1C(c1ccc(F)cc1OC)[C@H](C)OC(=O)[C@H](C)NC(=S)c1nccc(OC)c1O` (some centres unmarked) [Compound 29], the melting point lay within 60 to 72 °C. The pest or weed control at 100 ppm in data set [1] (setting [4]) was more than 80%. In addition, in data set [1] (setting [5]), the pest or weed control at 100 ppm was more than 80%. Besides, in data set [2] (setting [6]), the pest or weed control at 100 ppm is more than 80%. Moreover, the pest or weed control at 100 ppm in data set [2] (setting [7]) is more than 80%.

For `COc1ccnc(C(=S)N[C@@H](C)C(=O)O[C@@H](C)[C@H](Oc2ccc(C)cc2)C2CCCC2)c1O` [Compound 38], the melting point was in the range of 49 to 57 °C. Besides, in data set [1] (setting [4]), the pest or weed control at 100 ppm is more than 80%. In addition, the pest or weed control at 100 ppm in data set [1] (setting [5]) was more than 80%. The pest or weed control at 100 ppm in data set [2] (setting [6]) was more than 80%. The pest or weed control at 100 ppm in data set [2] (setting [7]) was not above 80%.

As to `CCCCC[C@@H](OC(=O)[C@H](C)NC(=S)c1nccc(OC)c1OC(C)=O)[C@H](C)Oc1ccccc1` [Compound 41], the pest or weed control at 121.5 g/ha in data set [1] (setting [8]), in data set [1] (setting [9]), in data set [2] (setting [10]) and in data set [2] (setting [11]) was more than 80% throughout.

For `COc1cc(C)ccc1C(c1ccc(F)cc1OC)[C@H](C)OC(=O)[C@H](C)NC(=S)c1nccc(OC)c1OC(C)=O` (some centres unmarked) [Compound 65], the pest or weed control at 121.5 g/ha in data set [1] (setting [8]), in data set [1] (setting [9]), in data set [2] (setting [10]) and in data set [2] (setting [11]) was more than 80% throughout. Further, the pest or weed control at 25 ppm is more than 80% in data set [3] (24 h, 1 day protectant, read-out: PHAKPA 1DP disease control at 25 ppm) and not above 80% in data set [3] (72 h, 3 day curative, read-out: PHAKPA 3DC disease control at 25 ppm).
